Data reported in US11274106B2, “Topoisomerase inhibitors with antibacterial and anticancer activity” (THE BOARD OF TRUSTEES OF THE UNIVERSITY OF ILLINOIS, priority 2017, dated 2022).
In brackets after ≈: the same amount, converted by molar mass.

Key:
[1] = molecular target: T1, Top1cc (Homo sapiens, UniProt P11387); experiment: ICE assay for Top1-DNA adducts in H460 cells; format: cell-based; conditions: for Accumulation of Top1cc (ICE assay): H460 cells, 50 μM, 30 min; for Mode of topoisomerase inhibition: in vitro and cell culture experiments taken together
T1 construct: endogenous in cells; host or cells: H460
T1 sequence (P11387 2-765 limits assumed): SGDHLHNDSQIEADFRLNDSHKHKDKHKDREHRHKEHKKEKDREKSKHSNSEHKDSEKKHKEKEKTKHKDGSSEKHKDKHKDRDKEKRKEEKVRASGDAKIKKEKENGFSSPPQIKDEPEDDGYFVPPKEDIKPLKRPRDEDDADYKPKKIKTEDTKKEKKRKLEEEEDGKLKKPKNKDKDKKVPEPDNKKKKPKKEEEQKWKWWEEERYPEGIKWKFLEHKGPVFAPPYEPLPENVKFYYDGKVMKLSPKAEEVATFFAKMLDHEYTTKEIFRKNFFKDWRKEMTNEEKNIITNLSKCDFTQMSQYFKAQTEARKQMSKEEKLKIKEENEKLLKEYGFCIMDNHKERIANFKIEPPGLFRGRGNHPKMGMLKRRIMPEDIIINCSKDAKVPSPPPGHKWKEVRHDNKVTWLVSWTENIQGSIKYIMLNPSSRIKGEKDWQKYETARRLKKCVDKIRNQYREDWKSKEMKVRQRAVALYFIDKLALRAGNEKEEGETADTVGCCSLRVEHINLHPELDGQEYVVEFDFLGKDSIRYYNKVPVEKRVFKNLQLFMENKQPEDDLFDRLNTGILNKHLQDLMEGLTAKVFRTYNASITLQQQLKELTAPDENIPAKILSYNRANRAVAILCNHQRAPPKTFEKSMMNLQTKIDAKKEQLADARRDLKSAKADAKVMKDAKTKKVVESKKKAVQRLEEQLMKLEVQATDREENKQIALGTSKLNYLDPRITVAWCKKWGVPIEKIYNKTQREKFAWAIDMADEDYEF
Description: (§1) FIG. 3. DNM derivatives are dual Top1/Top2 inhibitors with different modes of inhibition. (a) Inhibition of decatenating ability of Top2α with increasing concentrations of ETP, 6DNM-NH3, 6DNM-Pyr, and Ph-6DNM-NH3. K, kinetoplast DNA; OC, open circular; R, relaxed. (b) Inhibition of relaxing ability of Top1 with increasing concentrations of CPT, 6DNM-NH3, 6DNM-Pyr, and Ph-6DNM-NH3. R, relaxed; S, supercoiled. (c) Detection of Top2a-DNA using the ICE Assay. Genomic DNA ([…]) of H460 cells treated with drugs (50 μM, 30 min) was applied to nitrocellulose membrane and immunoblotted for Top2a. (d) Detection of Top1-DNA adducts using ICE Assay. Same procedure as (c) using 1 μg of DNA. (e) Inhibition of ETP-induced poisoning of Top2a. H460 cells treated with indicated concentrations of inhibitor for 30 min prior to treatment with ETP (50 μM). Detection of Top2α as in (c).
The in vivo complex of enzyme (ICE) assay can be used to distinguish poisons from catalytic inhibitors. The ICE assay consists of isolating the genomic DNA of cells treated with small molecules in a manner the preserves covalent DNA-protein complexes and applying it to nitrocellulose membranes. Because topoisomerase poisons stabilize the cleavage complexes, DNA-protein complexes can be detected by immunoblotting for specific topoisomerases, whereas catalytic inhibitors produce no such result. To determine if DNM derivatives are acting as poisons or catalytic inhibitors, H460 human lung cells were exposed to 50 μM of the Top2 poison ETP, Ph-6DNM-NH3, 6DNM-NH3, and 6DNM-Pyr and assessed for their ability to stabilize Top2cc. […] In a similar fashion, next investigated was the mode of Top1 inhibition using the ICE assay (FIG. 3b).

[2] = system: HeLa; experiment: Antiproliferative SRB assay, HeLa; format: cell-based; conditions: Homo sapiens, 72 h, Ovarian cancer (footnote e), mean ± SEM
Description: (§2) Topoisomerase inhibitors such as DOX are used as single agent and in combination therapy to treat a wide-range of cancer types.

[3] = molecular target: T2, Top1 (Homo sapiens, UniProt P11387); experiment: Top1 DNA relaxation assay (pBR322); format: biochemical; conditions: for Inhibition of Top1 relaxation: supercoiled pBR322, FIG. 3b
T2 sequence (P11387 1-765): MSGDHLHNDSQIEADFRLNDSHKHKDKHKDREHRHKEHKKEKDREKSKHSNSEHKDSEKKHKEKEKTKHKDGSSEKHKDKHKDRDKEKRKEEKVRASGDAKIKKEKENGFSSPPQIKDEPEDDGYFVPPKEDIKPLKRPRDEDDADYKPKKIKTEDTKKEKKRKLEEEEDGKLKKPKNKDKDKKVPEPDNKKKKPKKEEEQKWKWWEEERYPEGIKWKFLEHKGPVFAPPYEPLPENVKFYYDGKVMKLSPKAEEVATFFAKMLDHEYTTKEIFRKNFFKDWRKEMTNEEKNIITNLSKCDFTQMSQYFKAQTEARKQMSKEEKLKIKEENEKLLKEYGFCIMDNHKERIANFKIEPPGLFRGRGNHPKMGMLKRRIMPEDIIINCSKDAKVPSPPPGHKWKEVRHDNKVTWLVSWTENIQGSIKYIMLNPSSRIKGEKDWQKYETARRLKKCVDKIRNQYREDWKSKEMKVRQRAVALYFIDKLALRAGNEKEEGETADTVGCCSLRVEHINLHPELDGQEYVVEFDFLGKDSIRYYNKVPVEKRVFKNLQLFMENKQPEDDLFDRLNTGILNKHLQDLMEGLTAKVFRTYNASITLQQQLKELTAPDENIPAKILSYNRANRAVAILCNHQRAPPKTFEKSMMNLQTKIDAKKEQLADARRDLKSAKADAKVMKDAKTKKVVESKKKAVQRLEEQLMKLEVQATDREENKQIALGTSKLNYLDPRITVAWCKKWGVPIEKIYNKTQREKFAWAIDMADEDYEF
Description: as §1
To further investigate any mechanistic differences between these structurally related DNM analogues they were also evaluated against the other clinically-targeted mammalian topoisomerase, Top1, using a DNA relaxation assay in which purified Top1 relaxes supercoiled pBR322 and the two forms are separated by agarose gel electrophoresis.

[4] = system: panel of cancer cells; experiment: Average over panel of 10 cancer cell lines; format: cell-based; conditions: 72 hour, read-out: Average (mean) IC50 over the cell line panel
Description: as §2

[5] = system: Jurkat; experiment: Cell viability Alamar Blue assay, Jurkat; format: cell-based; conditions: Homo sapiens, 72 h, Leukemia, mean ± SEM
Description: as §2

[6] = system: MRSA; experiment: Antibacterial MIC, microbroth dilution, MRSA; format: cell-based, S. aureus; conditions: Staphylococcus aureus, MRSA; microbroth dilution
Procedure: To investigate this possibility, the antibacterial effects of the DNM derivatives was assessed against strains of E. coli, S. aureus, and MRSA using the microbroth dilution method (Table 2).

[7] = molecular target: E. coli TopoIV (Escherichia coli, UniProt P0AFI2+P20083); experiment: E. coli TopoIV decatenation assay; format: biochemical
Description: FIG. 8. In vitro inhibitory activity of 6DNM-NH3, Ph-6DNM-NH3 against E. coli DNA gyrase and TopoIV.
DNM and its derivatives exert their antibacterial effects through inhibition of the DNA Gyrase.

Chain of E. coli TopoIV (P0AFI2 whole entry): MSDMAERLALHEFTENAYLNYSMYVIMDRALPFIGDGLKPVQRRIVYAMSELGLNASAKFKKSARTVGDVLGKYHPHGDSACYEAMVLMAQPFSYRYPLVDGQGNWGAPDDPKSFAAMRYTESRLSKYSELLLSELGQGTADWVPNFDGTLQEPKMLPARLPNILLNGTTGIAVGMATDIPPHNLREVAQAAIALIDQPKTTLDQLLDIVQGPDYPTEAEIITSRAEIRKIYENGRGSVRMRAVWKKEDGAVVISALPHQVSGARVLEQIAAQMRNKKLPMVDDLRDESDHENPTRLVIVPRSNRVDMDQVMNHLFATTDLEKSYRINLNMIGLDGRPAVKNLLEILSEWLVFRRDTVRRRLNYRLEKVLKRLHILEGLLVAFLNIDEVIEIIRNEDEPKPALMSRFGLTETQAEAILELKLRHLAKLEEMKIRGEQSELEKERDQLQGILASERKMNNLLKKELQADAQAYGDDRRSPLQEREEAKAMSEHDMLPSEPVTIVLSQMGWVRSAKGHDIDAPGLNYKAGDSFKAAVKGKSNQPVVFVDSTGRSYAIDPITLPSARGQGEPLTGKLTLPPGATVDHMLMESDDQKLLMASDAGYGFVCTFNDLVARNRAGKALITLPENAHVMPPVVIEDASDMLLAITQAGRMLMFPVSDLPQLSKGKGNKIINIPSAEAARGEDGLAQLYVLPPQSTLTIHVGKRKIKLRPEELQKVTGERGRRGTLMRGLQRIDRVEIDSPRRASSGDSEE
Chain of E. coli TopoIV (P20083 whole entry): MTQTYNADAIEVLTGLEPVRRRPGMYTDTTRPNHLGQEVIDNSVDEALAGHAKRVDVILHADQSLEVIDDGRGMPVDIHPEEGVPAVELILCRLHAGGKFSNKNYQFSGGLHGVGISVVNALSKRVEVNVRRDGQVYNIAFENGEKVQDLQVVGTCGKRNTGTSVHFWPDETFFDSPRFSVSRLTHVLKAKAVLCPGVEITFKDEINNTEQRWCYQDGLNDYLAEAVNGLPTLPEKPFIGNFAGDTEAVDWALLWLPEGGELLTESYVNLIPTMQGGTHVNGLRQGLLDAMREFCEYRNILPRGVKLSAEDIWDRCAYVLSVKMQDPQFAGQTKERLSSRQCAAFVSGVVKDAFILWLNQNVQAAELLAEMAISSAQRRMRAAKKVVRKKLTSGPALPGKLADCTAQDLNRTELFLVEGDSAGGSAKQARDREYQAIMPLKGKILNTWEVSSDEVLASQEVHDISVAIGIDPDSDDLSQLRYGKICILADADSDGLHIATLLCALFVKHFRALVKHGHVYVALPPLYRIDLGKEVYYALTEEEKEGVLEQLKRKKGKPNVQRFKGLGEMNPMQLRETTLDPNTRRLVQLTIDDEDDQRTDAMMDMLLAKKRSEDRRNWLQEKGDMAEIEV

SMILES | Accumulation of Top1cc (ICE assay) [1] | Mode of topoisomerase inhibition [1] | IC50 [2] [nM] | Inhibition of Top1 relaxation [3] | IC50 [4] [nM] | IC50 [5] [nM] | MIC [6] [µg/mL] | Inhibition of purified E. coli TopoIV [7] | Fold less potent Top1 inhibitor than 6DNM-Pyr ([3]; DNA relaxation assay)
Cc1cc(=O)n(C)c2c3c4c(cc12)c(C)cc(=O)n4C(CN1CCCC1)CO3 (stereo not drawn) [Compound 20] | neither 6DNM-NH3 nor 6DNM-Pyr, leads to the accumulation of Top1cc | dual Top1/Top2α catalytic inhibitors | 27 ± 1 | inhibit relaxation at submicromolar concentrations | 25 | 20 ± 6 | – | – | –
Cc1cc(=O)n2c3c(c4c(cc13)c1ccccc1c(=O)n4C)OCC2CN (stereo not drawn) [Compound 15] | leads to the accumulation of Top1cc | Top1 poison/Top2α catalytic inhibitor | 56 ± 5 | approximately equipotent to the known Top1 inhibitor camptothecin | 164 | 290 ± 30 | 1 (≈ 2.77 µM) | able to inhibit | more than 20 fold
